Reference: the Kinase Knowledgebase extract (Sharma et al. 2016)

Target: PIK3CG (human) (UniProt P48736)
Experiment: Inhibition of PIK3CG Kinase Activity

PIK3CG (human), sequence (P48736 whole entry, looked up): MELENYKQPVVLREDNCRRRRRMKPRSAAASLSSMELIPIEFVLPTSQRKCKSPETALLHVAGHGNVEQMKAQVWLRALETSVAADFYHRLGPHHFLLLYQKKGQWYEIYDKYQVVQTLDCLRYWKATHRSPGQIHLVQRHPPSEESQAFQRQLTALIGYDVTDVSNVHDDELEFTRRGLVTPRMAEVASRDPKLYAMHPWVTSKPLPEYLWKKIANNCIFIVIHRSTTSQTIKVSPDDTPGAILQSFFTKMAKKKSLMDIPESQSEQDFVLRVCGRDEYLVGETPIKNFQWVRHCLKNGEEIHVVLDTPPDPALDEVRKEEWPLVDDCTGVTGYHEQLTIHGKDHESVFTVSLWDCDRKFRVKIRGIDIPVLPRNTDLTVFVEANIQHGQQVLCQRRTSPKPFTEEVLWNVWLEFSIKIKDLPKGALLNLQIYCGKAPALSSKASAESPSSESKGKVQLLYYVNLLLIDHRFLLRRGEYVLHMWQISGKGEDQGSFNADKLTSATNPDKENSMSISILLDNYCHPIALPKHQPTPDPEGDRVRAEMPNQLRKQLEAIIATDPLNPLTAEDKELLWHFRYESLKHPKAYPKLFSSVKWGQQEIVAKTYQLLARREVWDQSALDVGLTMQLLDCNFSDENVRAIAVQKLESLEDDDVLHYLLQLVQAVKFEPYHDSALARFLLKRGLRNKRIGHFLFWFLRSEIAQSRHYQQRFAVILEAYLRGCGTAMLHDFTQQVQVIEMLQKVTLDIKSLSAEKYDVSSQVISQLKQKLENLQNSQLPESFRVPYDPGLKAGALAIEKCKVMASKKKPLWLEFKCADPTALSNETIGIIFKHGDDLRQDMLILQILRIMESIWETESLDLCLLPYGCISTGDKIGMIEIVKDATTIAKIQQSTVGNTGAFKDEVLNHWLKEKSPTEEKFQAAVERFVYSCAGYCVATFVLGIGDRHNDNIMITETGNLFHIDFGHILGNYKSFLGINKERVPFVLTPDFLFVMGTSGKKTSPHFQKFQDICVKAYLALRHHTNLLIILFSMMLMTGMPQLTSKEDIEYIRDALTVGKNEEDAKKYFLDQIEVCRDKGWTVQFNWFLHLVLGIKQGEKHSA

Structure (SMILES) | IC50 [µM]
CC(C)c1ccc(S(=O)(=O)Nc2cncc(-c3ccc4nc(N)nn4c3)c2)cc1 | < 10
Nc1nc2ccc(-c3cncc(NS(=O)(=O)Cc4ccc(C(F)(F)F)cc4)c3)cn2n1 | < 10
CN(C)CCN(C)S(=O)(=O)c1cncc(-c2ccc3nc(N)nn3c2)c1 | < 10
Nc1nc2c(F)cc(-c3cncc(S(=O)(=O)N4CCC4)c3)cn2n1 | < 10
Nc1nc2ccc(-c3cncc(S(=O)(=O)Nc4cccc(F)c4)c3)cn2n1 | < 10
Nc1nc2ccc(-c3cncc(S(=O)(=O)Nc4ccccc4F)c3)cn2n1 | < 10
CN(C)CCCNS(=O)(=O)c1cncc(-c2ccc3nc(N)nn3c2)c1 | < 10
Nc1nc2ccc(-c3cncc(S(=O)(=O)Nc4cccc(OC(F)(F)F)c4)c3)cn2n1 | < 10
Nc1nc2ccc(-c3cncc(S(=O)(=O)N4Cc5ccccc5C4)c3)cn2n1 | < 10
Nc1nc2ccc(-c3cncc(S(=O)(=O)N4CCCCCC4)c3)cn2n1 | < 10
Nc1nc2ccc(-c3cncc(S(=O)(=O)NCC4CCCCCC4)c3)cn2n1 | < 10
Nc1nc2ccc(-c3cncc(NS(=O)(=O)c4ccc(Cl)cc4)c3)cn2n1 | < 10
Nc1nc2ccc(-c3cncc(S(=O)(=O)Nc4cccc(C(F)(F)F)c4)c3)cn2n1 | < 10
Nc1nc2ccc(-c3cncc(S(=O)(=O)N4CCNCC4)c3)cn2n1 | < 10
CCCCN(C)S(=O)(=O)c1cncc(-c2ccc3nc(N)nn3c2)c1 | < 10
Nc1nc2ccc(-c3cncc(S(=O)(=O)Nc4ccc(F)cc4)c3)cn2n1 | < 10
CN1CCN(S(=O)(=O)c2cncc(-c3ccc4nc(N)nn4c3)c2)CC1 | < 10
CC(C)(NS(=O)(=O)c1cncc(-c2ccc3nc(N)nn3c2)c1)c1ccc(F)cc1 | < 10
Nc1nc2c(F)cc(-c3cncc(C(F)(F)F)c3)cn2n1 | < 10
Nc1nc2ccc(-c3cncc(S(=O)(=O)NCCN4CCNC4=O)c3)cn2n1 | < 10
Nc1nc2ccc(-c3cncc(S(=O)(=O)NCc4ccccc4)c3)cn2n1 | < 10
Nc1nc2ccc(-c3cncc(NS(=O)(=O)c4ccc(C(F)(F)F)cc4)c3)cn2n1 | < 10
CC(C)NS(=O)(=O)c1cncc(-c2cc(F)c3nc(N)nn3c2)c1 | < 10
Nc1nc2ccc(-c3cncc(S(=O)(=O)Nc4ccc(F)c(F)c4)c3)cn2n1 | < 10
Nc1nc2ccc(-c3cncc(NS(=O)(=O)Cc4ccc(Cl)cc4)c3)cn2n1 | < 10
CC(C)(C)NS(=O)(=O)c1cncc(-c2cc(F)c3nc(N)nn3c2)c1 | < 10

The next lines start with the values.

IC50 [µM] | Structure (SMILES)
< 10 | Nc1nc2ccc(-c3cccc(O)c3)cn2n1
< 10 | Nc1nc2ccc(-c3cccc(Cl)c3)cn2n1
< 10 | COc1cccc(NS(=O)(=O)c2cncc(-c3ccc4nc(N)nn4c3)c2)c1
< 10 | COc1ccccc1NS(=O)(=O)c1cncc(-c2ccc3nc(N)nn3c2)c1
< 10 | COc1ccc(-c2ccc3nc(N)nn3c2)cc1O
< 10 | Nc1nc2ccc(-c3cccc(C(F)(F)F)c3)cn2n1
< 10 | CN(C)CCNS(=O)(=O)c1cccc(-c2ccc3nc(N)nn3c2)c1
< 10 | COc1ccc(-c2cn3nc(N)nc3cc2C)cc1OC
< 10 | Nc1nc2ccc(-c3cncc(Cl)c3)cn2n1
< 10 | CN(Cc1ccccc1)S(=O)(=O)c1cncc(-c2ccc3nc(N)nn3c2)c1
< 10 | COc1cc(-c2ccc3nc(N)nn3c2)ccc1O
< 10 | CC(C)c1ccccc1NS(=O)(=O)c1cncc(-c2ccc3nc(N)nn3c2)c1
< 10 | COc1cc(-c2ccc3nc(N)nn3c2)ccc1OC(C)C
< 10 | CC(C)(C)CNS(=O)(=O)c1cncc(-c2ccc3nc(N)nn3c2)c1
< 10 | Nc1nc2ccc(-c3cccc(S(=O)(=O)NCC(=O)O)c3)cn2n1
< 10 | COc1ccc(-c2ccc3nc(N)nn3c2)cc1OC
< 10 | COc1ccc(-c2ccc3nc(N)nn3c2)cc1
< 10 | Nc1nc2ccc(-c3cccc(S(N)(=O)=O)c3)cn2n1
< 10 | COc1ccc(-c2ccc3nc(NC(N)=O)nn3c2)cc1OC
< 10 | Nc1nc2ccc(-c3cccc(C(=O)O)c3)cn2n1
< 10 | Nc1nc2ccc(-c3cncc(Oc4ccccc4)c3)cn2n1
< 10 | CC(C)(C)CS(=O)(=O)c1cncc(-c2ccc3nc(N)nn3c2)c1
< 10 | N#Cc1cccc(-c2ccc3nc(N)nn3c2)c1
< 10 | CC(C)COc1cncc(-c2ccc3nc(N)nn3c2)c1
< 10 | CCNS(=O)(=O)c1cncc(-c2ccc3nc(N)nn3c2)c1
